In patent publication US8252775B2, “Method of treating multiple sclerosis with phosphocholine containing lipids” (priority 2005, dated 2012):
Where “and” joins values, the source holds several entries; their conditions need not be identical. Equal entries are not always repeated. Entries after “also recorded” stand apart in the source; their conditions may differ.

Assays:
EAE [1] = test: Prevention of EAE by co-delivery of lipid with PLP139-151/CFA; assay type: in vivo; details: SJL/J mice; 6 μg lipid with 100 μg PLP139-151 in CFA s.c. day 0, 6 μg i.p. days 4 and 7; vs vehicle
TCR Tg LN cells [2] = test: 7AAD uptake (cell death) in MBPAc1-11-stimulated TCR Tg cells; assay type: cell-based; details: 75 μM lipid, 5 μg/ml MBPAc1-11, 48 hours
Procedure: (§1) FIG. 6a-6d. PGPC slows the rate of T cell proliferation. […] The 0 hour time point is shown as the high peak with the black dashed line. (c) 7AAD stained cells from TCR Tg mice^33, 48 hours after incubation with 5 μg/ml MBPAc1-11 with or without lipid. […] (d) LN cells stimulated with 1 μg/ml MBPAC1-11, 30 μg/ml PGPC, with or without 50 U/ml IL-2 are depicted.
(§2) To determine if the PGPC-mediated reduction in the proliferation rate of MBPAC1-11 stimulated T cells was due to cell death, we examined 7AAD uptake to identify dead cells at the 48 hour time point (FIG. 6c). […] This effect could be reversed by the addition of 50 U/ml IL-2 (p=0.024, Student's t test) (FIG. 6d), consistent with IL-2 mediated rescue of the T cells from an anergic state.
Flow cytometric analysis. Cells were stained and run on a FACScan flow cytometer (BD Biosciences) using CellQuest software (BD Immunocytometry Systems). Results were analyzed using FlowJo software version 6.3.2 (Tree Star, Inc.). The following antibody conjugates were used: PE anti-mouse CD3, clone 145-2C11; FITC anti-mouse CD4, clone GK1.5; PE anti-mouse CD4, clone GK1.5; FITC anti-mouse CD8, clone 53-6.7; PE-anti-mouse CD69, clone H1.2F3. All anti-CD3, CD4, and CD8 antibodies were purchased from BD Pharmingen. Anti-mouse CD69 was purchased from eBioscience. […]

EAE [3] = test: Treatment of established EAE with intravenous lipid; assay type: in vivo, mice; details: 100 μg lipid i.v. at onset of paralysis and days 3, 6, 12, 18; five injections; vs vehicle
[4] = test system: MBPAc1-11-specific T cells; test: 3H-thymidine proliferation of MBPAc1-11-stimulated LN cells with lipid in vitro; assay type: cell-based, mice
Procedure: as §1, §2
Proliferation and cytokine assays. We sacrificed mice and harvested their lymph node cells and splenocytes. 2.5×10^6 cells/ml were stimulated in vitro with 10 μg/ml PLP139-151, 1 μg/ml ConA, or media alone. Cells were cultured in RPMI 1640 with 10% fetal bovine serum, supplemented with L-glutamine (2 mM), sodium pyruvate (1 mM), non-essential amino acids (0.1 mM), penicillin (100 U/ml), streptomycin (0.1 mg/ml), and 2-mercaptoethanol (50 μM). To assess proliferation, 1 μCi of ^3H-thymidine was added to each well at 48 hours for the final 18 hours of culture, and radioactivity incorporation quantified using a Betaplate scintillation counter. […]

IFNγ [5] = test: IFNγ ELISA on PLP139-151-stimulated cells from lipid-treated EAE mice; assay type: in vivo; details: vs controls; for IFNγ secretion by lymph node cells: LN cells from treated EAE mice stimulated with PLP139-151
Procedure: (§3) FIG. 5a-5b. PGPC treatment lowers IFNgamma secretion and early activation marker expression in response to the encephalitogenic antigen. (a) CD69 expression on CD4^+ and CD8^+PI^− lymphocytes (live cells) after 4 days in culture with 10 μg/ml PLP139-151. The ratio of CD69^+CD4^+:CD69^−CD4^+ is 14.2%:39.6% for lymph node cells from vehicle-treated mice, 9.6%:43.8% for cells from sphingomyelin-treated mice, and 7.96%:55.2% for cells from PGPC-treated mice. […] (b) Proliferation and cytokine assays of lymph node cells and splenocytes isolated from vehicle, PGPC, and sphingomyelin-treated mice in FIG. 4c.
(§4) Mice were sacrificed 48 days after disease induction and their spleens and lymph nodes (LN) harvested for analyses of expression of activation markers on subsets of T cells, measurements of secreted cytokines, and levels of T cell proliferation. Isolated cells were restimulated with the encephalitogenic antigen PLP139-151 and analyzed by flow cytometry. Dead cells (identified based on staining with propidium iodide) were eliminated from the analyses, and cells double stained with CD4-FITC or CD8-FITC and CD69-PE are presented (FIG. 5a). […] Specifically, the cells isolated from vehicle treated mice were 39.6% CD4^+CD69^− and 14.2% CD4^+CD69^+, whereas cells from PGPC treated mice were 55.2% CD4^+CD69^− and 7.96% CD4^+CD69^+.
Proliferation and cytokine assays. We sacrificed mice and harvested their lymph node cells and splenocytes. 2.5×10^6 cells/ml were stimulated in vitro with 10 μg/ml PLP139-151, 1 μg/ml ConA, or media alone. Cells were cultured in RPMI 1640 with 10% fetal bovine serum, supplemented with L-glutamine (2 mM), sodium pyruvate (1 mM), non-essential amino acids (0.1 mM), penicillin (100 U/ml), streptomycin (0.1 mg/ml), and 2-mercaptoethanol (50 μM). To assess proliferation, 1 μCi of ^3H-thymidine was added to each well at 48 hours for the final 18 hours of culture, and radioactivity incorporation quantified using a Betaplate scintillation counter. Cytokine assays were performed on culture supernatants after 66 hours of culture using the BD OptEIA™ Mouse IFNγ ELISA kit (BD Biosciences). Results are shown as mean of triplicates+s.e.m.

splenocytes = test: 3H-thymidine proliferation of PLP139-151-stimulated splenocytes from lipid-treated EAE mice; assay type: in vivo; details: PLP139-151-stimulated splenocytes from treated EAE mice
Procedure: as §3
Mice were sacrificed 48 days after disease induction and their spleens and lymph nodes (LN) harvested for analyses of expression of activation markers on subsets of T cells, measurements of secreted cytokines, and levels of T cell proliferation. Isolated cells were restimulated with the encephalitogenic antigen PLP139-151 and analyzed by flow cytometry. Dead cells (identified based on staining with propidium iodide) were eliminated from the analyses, and cells double stained with CD4-FITC or CD8-FITC and CD69-PE are presented (FIG. 5a). […]
(§5) Proliferation and cytokine assays. […] To assess proliferation, 1 μCi of ^3H-thymidine was added to each well at 48 hours for the final 18 hours of culture, and radioactivity incorporation quantified using a Betaplate scintillation counter. […]

TCR Tg LN cells [6] = test: CFSE T cell proliferation assay, MBPAc1-11-stimulated TCR Tg LN cells; assay type: cell-based, mice; details: 75 μM lipid, 5 μg/ml MBPAc1-11, 48 hours, CD3+ and CD4+ cells; vs media alone
[7] = test system: CD69 expression on CD4+ T cells; test: Flow cytometry of CD69 on restimulated lymph node cells from lipid-treated EAE mice; assay type: in vivo; details: for expression of early activation marker CD69 on CD4+ T cells: cells from treated EAE mice restimulated with PLP139-151, vs vehicle; for CD4+CD69+ cells / CD4+CD69− cells: lymph node cells of treated EAE mice, 4 days culture with 10 μg/ml PLP139-151; for CD4+CD69+ cells: vehicle 14.2%; for CD4+CD69− cells: vehicle 39.6%
Procedure: as §3, §4
Flow cytometric analysis. Cells were stained and run on a FACScan flow cytometer (BD Biosciences) using CellQuest software (BD Immunocytometry Systems). Results were analyzed using FlowJo software version 6.3.2 (Tree Star, Inc.). The following antibody conjugates were used: PE anti-mouse CD3, clone 145-2C11; FITC anti-mouse CD4, clone GK1.5; PE anti-mouse CD4, clone GK1.5; FITC anti-mouse CD8, clone 53-6.7; PE-anti-mouse CD69, clone H1.2F3. All anti-CD3, CD4, and CD8 antibodies were purchased from BD Pharmingen. Anti-mouse CD69 was purchased from eBioscience. 7AAD staining was performed using the reagents from the Annexin V-PE Apoptosis Detection Kit I (BD Pharmingen) using the manufacturer's recommended staining protocol. CFSE staining was performed on freshly isolated lymph node cells by mixing equal volumes of 37° C. pre-warmed cells in PBS containing 5% FBS with 10 μM solution of pre-warmed CFSE probe (CellTrace™ CFSE Cell Proliferation Kit) as described in the manufacturer's alternate method for labelling cells in solution (Molecular Probes).

EAE [8] = test: Co-immunization with sulfatide plus PLP139-151, EAE disease course; assay type: in vivo; details: SJL mice; sulfatide 6 μg/mouse with PLP139-151 in CFA day 0, i.p. d4 and d7; vs vehicle
Procedure: (§6) FIG. 9. […] (a) Co-immunization of SJL mice with sulfatide (6 μg/mouse) and PLP139-151 (100 μg/mouse) emulsified in CFA (▪ sulfatide n=10, ▪ vehicle control n=10). An additional immunization of sulfatide (6 μg/mouse) or vehicle was given i.p. on d4 and d7 post-immunization. Each point represents the mean+s.e.m. (*p<0.05; Student's t test). […] The heatmap and dendrograms represent the SAM and hierarchical cluster analysis of lipid array results. (c) Modulation of EAE disease course after i.v. injection of O4 anti-sulfatide antibody versus IgM isotype control (▪ O4 n=5, ▪ IgM control n=5). Antibody was given on days 14, 17, and 19 post-immunization.
(§7) Further, the exacerbation of mouse EAE was associated with increased lymphocyte production of pro-inflammatory cytokines. Thus, characterization of the effects of candidate lipids in the mouse EAE model for MS (EAE), both with regard to their effects on disease severity as well as the production of pro-inflammatory cytokines by autoreactive lymphocytes can be used to identify lipids likely to exacerbated MS.
EAE induction and lipid co-immunization. […] Clinical disease was monitored daily using the following scoring system: 0, no disease; 1, limp tail; 2, hindlimb weakness; 3, hindlimb paralysis; 4, hindlimb and forelimb paralysis; 5, death. […]

TNFα = TNFα production by PLP139-151-specific T cells from sulfatide co-immunized mice; assay type: in vivo; details: T cells from mice immunized with PLP139-151+sulfatide
anti-lipid antibodies = test: Lipid array analysis of serum from mice co-immunized with PLP139-151 plus sulfatide; assay type: in vivo; details: SJL mice co-immunized with PLP139-151 plus sulfatide
Procedure: as §6
Probing lipid arrays. Arrays were blocked overnight in 4° C. with 1% fatty acid free bovine serum albumin (BSA; Sigma) in phosphate buffered saline (PBS; Gibco BRL). Arrays were then probed with 1/10 dilutions of CSF, or 1/200 dilutions of sera for 2 hours at 4° C. After washing with blocking solution, a secondary antibody (anti-human IgG+IgM, Jackson Immunoresearch; anti-human IgG, Jackson Immunoresearch; anti-rabbit IgG, Amersham; or anti-mouse IgG, Amersham) conjugated to horseradish peroxidase (HRP) was added in blocking solution, and bound secondary antibodies visualized using chemiluminescence (ECL Plus, Amersham) and autoradiography. […]

IL-4 = IL-4 production by PLP139-151-specific T cells from sulfatide co-immunized mice; assay type: in vivo; details: T cells from mice immunized with PLP139-151+sulfatide
Procedure: as §6, §7

IL-12 = IL-12 production by lymphocytes from sulfatide-treated mice; assay type: in vivo; details: lymphocytes from sulfatide-treated mice (sulfatide+PLP139-151)
Procedure: as §6

IFNγ [9] = test: IFNγ production by PLP139-151-specific T cells from sulfatide co-immunized mice; assay type: in vivo; details: T cells from mice immunized with PLP139-151+sulfatide
Procedure: as §6, §7
as §5, with “assays. We sacrificed mice and harvested their lymph node cells and splenocytes.” for “assays.”

Compound	severity of EAE (prevention) (EAE [1])	cell death by 7AAD uptake (TCR Tg LN cells [2])	severity of paralysis in established EAE (EAE [3])	effect of IL-2 on PGPC-mediated reduction of proliferation ([4]; 1 μg/ml MBPAc1-11, 30 μg/ml PGPC plus 50 U/ml IL-2)	MBPAc1-11-specific T cell proliferation (3H-thymidine incorporation) ([4]; LN cells, 1 μg/ml MBPAc1-11, 30 μg/ml PGPC)	IFNγ secretion by lymph node cells (IFNγ [5])	IFNγ secretion by lymph node cells (IFNγ [5]; listed as PCPG)	IFNγ secretion by splenocytes (IFNγ [5]; splenocytes from treated EAE mice stimulated with PLP139-151)	3H-thymidine incorporation (proliferation) of splenocytes (splenocytes)	T cell proliferation by CFSE staining (TCR Tg LN cells [6])	expression of early activation marker CD69 on CD4+ T cells [7]	CD4+CD69+ cells [7]	CD4+CD69− cells [7]	EAE disease course after co-immunization (EAE [8])	TNFα production in response to PLP139-151 (TNFα)	anti-lipid antibody reactivities in serum (anti-lipid antibodies)	IL-4 production in response to PLP139-151 (IL-4)	IL-12 production (IL-12)	IFNγ production in response to PLP139-151 (IFNγ [9])
CCCCCCCCCCCCCCCC(=O)OC[C@H](COP(=O)([O-])OCC[N+](C)(C)C)OC(=O)CCCC(=O)O [PGPC, 1-palmitoyl-2-glutaroyl-sn-glycero-3-phosphocholine]	statistically reduced the severity of EAE; also recorded: ameliorates EAE	not due to cell death; also recorded: not inducing cell death	reduced the severity of paralysis; also recorded: treats ongoing disease	IL-2 reversed this effect	statistically significant reductions in MBPAc1-11-specific T cell proliferation; also recorded: reduced cell proliferation	secreted less IFNgamma; also recorded: secreted lower levels of IFNγ	decreased IFNγ levels	secreted less IFNgamma; also recorded: secreted lower levels of IFNγ	reduced; also recorded: slightly lower proliferation	slowed T cell proliferation; also recorded: reduces T cell proliferation rates; also recorded: reduced cell divisions	marked reduction in the expression of the early activation marker CD69	7.96%	55.2%						
sulfatide														exacerbated murine MS; also recorded: more severe EAE disease course	increased amounts	increased anti-sulfatide and other anti-lipid antibody reactivities; also recorded: increased anti-lipid antibodies	less and lower levels	increased levels	increased amounts; also recorded: increased levels
sphingomyelin	statistically reduced the severity of EAE; also recorded: ameliorates EAE		only PGPC treats ongoing disease			decreased IFNγ levels				mirrored that of the control; also recorded: line parallels gray shaded area	intermediate level of CD69 expression	9.61% and 9.6%	43.8%						
